In assay [1] the test system is Escherichia coli ATCC 35218. Nature of the assay: MIC, broth microdilution, normal MH medium. The assay is classed as cell-based. The conditions noted are these: for MIC: Escherichia coli, ATCC35218, quality control strain, read-out: Antibacterial activity MIC, Escherichia coli ATCC 35218. The method, then:
(§1) Strain for quality control: Escherichia coli ATCC35218, purchased from National Center of Clinical Laboratory.
(§2) Medium: MH liquid medium (OXOID).
(§3) Culture condition: cells were incubated at 35-37° C. for 16-18 h.
(§4) The broth microdilution method recommended by Clinical and Laboratory Standards Institute (CLSI), Performance Standards for Antimicrobial Susceptibility Testing; Twenty-Third Informational Supplement, M02-All, M07-A9 and M11-A8, 2013 was used to determine the MIC value of each test sample against each test strain in the normal MH medium and iron-deficient MH medium.
(§5) After diluting each sample to different concentrations with normal MH medium, 100 μl of each test sample solution at different concentrations was separately aspirated onto a 96-well sterile polystyrene plate. Drug solutions were added to the 1st to 10th well with the final concentrations of 16, 8, 4, 2, 1, 0.5, 0.25, 0.125, 0.06, and 0.03 mg/L in each well, respectively. The 11th well, as a blank control, was not added with drugs and bacteria. The 12th well, as a bacterial growth control, was added with bacteria but no drug.
(§6) The test bacterial liquid was adjusted to a bacterial suspension of 0.5 Mcfarland standard with physiological saline, and diluted with MH broth at 1:100, and then added to the drug solution so that a final concentration of the bacterial liquid was approximately 10^4 CFU/ml; 100 μl of the bacterial liquid was further added to each of the above wells (the total volume in each well is 200 μl), which was sealed and placed in a 35-37° C. incubator for 18-20 h for testing the result. The OD600 value was measured by a microplate reader, Minimal Inhibitory Concentration (MIC) of a drug is the lowest concentration of the drug which prevents growth of bacteria in the wells. 1.2.2 MIC in iron-deficient MH medium
Background: Broth dilution looks for growth in wells or tubes with falling amounts of substance.

Assay [2] relates to Acinetobacter baumannii (4 strains). Nature of the assay: MIC, broth microdilution, normal MH medium. The assay is classed as cell-based. The protocol: (§7) Supplier of the strains: all of the above strains were provided by Sichuan Primed Shines Bio-tech Co., Ltd. A single colony was isolated by streaking on agar plates for each strain prior to the experiment, and the cells freshly cultured at 37° C. overnight were appropriately diluted for the experiment.
as §2, §3, §4, §5, §6

Assay [3] has as its system Escherichia coli (4 strains). Briefly: MIC, broth microdilution, normal MH medium. The assay is classed as cell-based. The note with it: clinical isolates (ESBLs). The protocol: as §7, §2, §3, §4, §5, §6
Assay [4] deals with Pseudomonas aeruginosa (4 strains). Briefly: MIC, broth microdilution, normal MH medium. In kind it is cell-based. The conditions noted are these: multidrug-resistant clinical isolates (integrator I, IMP4). The protocol: as §7, §2, §3, §4, §5, §6
Assay [5] has as its system Klebsiella pneumoniae (4 strains). Briefly: MIC, broth microdilution, normal MH medium. The conditions noted are these: multi-drug resistant clinical isolates (KPC2). The assay is classed as cell-based. The protocol: as §7, §2, §3, §4, §5
The OD600 value was measured by a microplate reader, Minimal Inhibitory Concentration (MIC) of a drug is the lowest concentration of the drug which prevents growth of bacteria in the wells. 1.2.2 MIC in iron-deficient MH medium

Assay [6] deals with Escherichia coli ATCC 35218. Briefly: MIC, broth microdilution, iron-deficient MH medium. In kind it is cell-based. The note with it: iron-deficient MH medium (16 mg/L 2,2'-bipyridine); quality control strain. The method, then: as §1, §2, §3, §4
(§8) BPL was added to the normal MH medium to obtain a final concentration of 16 mg/L; According to the method in Section 1.2.1, 100 μl of each test sample solution at different concentrations was aspirated to the 1st to 10th well in a 96-well sterile polystyrene plate to obtain the final drug concentrations of 16, 8, 4, 2, 1, 0.5, 0.25, 0.125, 0.06, and 0.03 mg/L, respectively. Then, 100 μl of the test bacterial liquid was added to each well (200 μl per well), and the final concentration of the bacterial liquid was approximately 10^4 CFU/ml. After sealing, it was placed in a 35-37° C. incubator for 18-20 hours for testing the result. The OD600 value was measured by a microplate reader, Minimal Inhibitory Concentration (MIC) of a drug is the lowest concentration of the drug which prevents growth of bacteria in the wells.

The subject of assay [7] is Acinetobacter baumannii (4 strains). Briefly: MIC, broth microdilution, iron-deficient MH medium. The assay is classed as cell-based. The conditions noted are these: iron-deficient MH medium (16 mg/L 2,2'-bipyridine); multidrug-resistant clinical isolates (integron I, OXA23). The protocol: as §7, §2, §3, §4, §8
The test system of assay [8] is Escherichia coli (4 strains). Briefly: MIC, broth microdilution, iron-deficient MH medium. The assay is classed as cell-based. The conditions noted are these: iron-deficient MH medium (16 mg/L 2,2'-bipyridine); clinical isolates (ESBLs). The protocol:
as §7, §2, §3, §4, §8

The subject of assay [9] is Klebsiella pneumoniae (4 strains). Briefly: MIC, broth microdilution, iron-deficient MH medium. In kind it is cell-based. The note with it: iron-deficient MH medium (16 mg/L 2,2'-bipyridine); multi-drug resistant clinical isolates (KPC2). The method, then: as §7, §2, §3, §4, §8
In assay [10] the test system is Pseudomonas aeruginosa (4 strains). Briefly: MIC, broth microdilution, iron-deficient MH medium. In kind it is cell-based. The conditions noted are these: iron-deficient MH medium (16 mg/L 2,2'-bipyridine); multidrug-resistant clinical isolates (integrator I, IMP4). The protocol:
as §7, §2, §3, §4, §8

The test system of assay [11] is Escherichia coli ECO-14-4 (ESBLs). Briefly: In vivo efficacy in mice systemically infected with Escherichia coli ECO-14-4 (ESBLs). The conditions noted are these: Kunming mice, intraperitoneal infection, drug s.c. 0.5 h and 4 h after infection, deaths over 7 days, Bliss method. The method, then: 3.1 Test strains: Clinically isolated pathogenic Escherichia coli ECO-14-4 (ESBLs), supplied by Sichuan Primed Shines Bio-tech Co., Ltd.
3.2 Test animals: Kunming mice, age: 4 to 5 weeks, weight: 18 to 22 g, half male, half female, SPF grade.
3.3 Test methods: Mice were randomly divided into several groups, 5 mice for each group, half male and half female, and 5 doses for each test drug: 1.25, 2.5, 5, 10 and 20 mg/kg. The mice were intraperitoneally injected with 0.5 mL of […] CFU/mL bacterial suspension for each mouse, and subcutaneously injected with the drug at the designed dose 0.5 h and 4 h after infection. The subcutaneous injection volume was 0.2 ml/20 g mouse weight; the number of deaths in mice was observed and recorded for 7 consecutive days. According to the number of deaths in mice, the half effective dose ED50 was calculated according to the Bliss method using the DAS 1.0 software, edited by Sun Ruiyuan et al.

Assay [12] concerns multidrug-resistant Klebsiella pneumoniae KR15-4 (KPC2). Briefly: In vivo efficacy in mice systemically infected with multidrug-resistant Klebsiella pneumoniae KR15-4 (KPC2). The note with it: Kunming mice, intraperitoneal infection, drug s.c. 0.5 h and 4 h after infection, deaths over 7 days, Bliss method; for ED50: Klebsiella pneumoniae, read-out: ED50 Subcutaneous injection. The method, then:
4.1 Test strains: clinically isolated pathogenic multidrug-resistant Klebsiella pneumoniae KR15-4 (KPC2), provided by Sichuan Primed Shines Bio-tech Co., Ltd.
4.2 Test animals: Kunming mice, age: 4 to 5 weeks, weight: 18 to 22 g, half male, half female, SPF grade.
4.3 Test methods: Mice were randomly divided into several groups, 5 mice for each group, half male and half female, and 4 doses for each test drug: 12.5, 25, 50 and 100 mg/kg. The mice were intraperitoneally injected with 0.5 mL of 3.0×10^6 CFU/mL bacterial suspension for each mouse, and subcutaneously injected with the drug at the designed dose 0.5 h and 4 h after infection. The subcutaneous injection volume was 0.2 ml/20 g mouse weight; the number of deaths in mice was observed and recorded for 7 consecutive days. According to the number of deaths in mice, the half effective dose ED50 was calculated according to the Bliss method using the DAS 1.0 software, edited by Sun Ruiyuan et al.

In brackets after ≈: the same amount, converted by molar mass.

Experimental findings from patent US10501454B2, “Monocyclic β-lactam-siderophore conjugate, and preparation method and use thereof” (Shanghai Institute of Materia Medica, Chinese Academy of …, priority 2016, dated 2019) are described below.

Take `CC1(C)[C@H](NC(=O)/C(=N\OCc2cc(=O)c(O)cn2O)c2csc(N)n2)C(=O)N1OS(=O)(=O)O` [BAL30072, reference compound]: the “Antibacterial activity MIC, Escherichia coli ATCC 35218” value in assay [1] (quality control strain) stood at 0.125 µg/mL; in assay [6] it was 0.06 µg/mL. In addition, the “Antibacterial activity MIC, Acinetobacter baumarmii (4 strains)” value in assay [2] (normal MH medium, multidrug-resistant clinical isolates (integron I, OXA23)) was in the range of 2 to 4 µg/mL. Besides, the “Antibacterial activity MIC, Escherichia coli (4 strains)” value in assay [3] was 1 µg/mL; in assay [8], 0.25 to 1 µg/mL. In addition, the “Antibacterial activity MIC, Pseudomonas aeruginosa (4 strains)” value is 2 µg/mL in assay [4] and 1 to 2 µg/mL in [10]. For the same compound, the “Antibacterial activity MIC, Klebsiella pneumoniae (4 strains)” value in [5] and in [9] was no less than 64 µg/mL each time. Moreover, the “Antibacterial activity MIC, Acinetobacter baumannii (4 strains)” value in assay [7] lay within 1 to 2 µg/mL. Further, in assay [11], the “ED50 Subcutaneous injection” value was 4.19 mg/kg.
The MIC is the least concentration at which growth counts as inhibited. What is called ED50 is the dose at which the effect has come halfway, by size or by number of responders. For `C[C@H]1[C@H](NC(=O)/C(=N\OC(C)(C)C(=O)O)c2csc(N)n2)C(=O)N1S(=O)(=O)O` [aztreonam, reference compound], the MIC in [1] is 0.5 µg/mL (≈ 1.15 µM). Further, in [12], the ED50 was greater than 100 mg/kg and the “ED50 Subcutaneous injection” value is greater than 100 mg/kg.
In the case of `C[C@@H](O)[C@H]1C(=O)N2C(C(=O)O)=C(S[C@@H]3CN[C@H](C(=O)N(C)C)C3)[C@H](C)[C@H]12` [meropenem, reference compound], the MIC is 0.125 µg/mL (≈ 0.326 µM) in assay [1]; 64 µg/mL (≈ 167 µM) in [2] (Acinetobacter baumannii, read-out: Antibacterial activity MIC, Acinetobacter baumarmii (4 strains)); 0.25 to 32 µg/mL (≈ 0.652 to 83.4 µM) in [3] (Escherichia coli, read-out: Antibacterial activity MIC, Escherichia coli (4 strains)); 32 to 64 µg/mL (≈ 83.4 to 167 µM) in assay [4] (Pseudomonas aeruginosa, read-out: Antibacterial activity MIC, Pseudomonas aeruginosa (4 strains)); 32 to 64 µg/mL (≈ 83.4 to 167 µM) in assay [5] (Klebsiella pneumoniae, read-out: Antibacterial activity MIC, Klebsiella pneumoniae (4 strains)). The ED50 in [12] was greater than 100 mg/kg. Further, the “ED50 Subcutaneous injection” value in assay [12] is greater than 100 mg/kg.
